Experiments:
[1] = test system: Apt1-3 (FAM) (DNA, aptamer) CTGTTTGCTACGCAG; assay: graphene oxide fluorescence assay; details: aptamer 0-250 nM titrated against 1.5 μM MNZ, 2 h; abstract prints error 25.59
[2] = test system: Apt0 (FAM) (DNA, aptamer) CTGTTTGGTAGGCAG; assay: graphene oxide fluorescence assay; details: aptamer 0-250 nM titrated against 1.5 μM MNZ, 2 h
[3] = test system: Apt8 (FAM) (DNA, aptamer) CTGTTTGCTAGGCAG; assay: graphene oxide fluorescence assay; details: aptamer 0-250 nM titrated against 1.5 μM MNZ, 2 h
[4] = test system: Apt11 (FAM) (DNA, aptamer) CTGTTTGGTACGCAG; assay: graphene oxide fluorescence assay; details: aptamer 0-250 nM titrated against 1.5 μM MNZ, 2 h
[5] = test system: Apt1-3 (DNA, aptamer) CTGTTTGCTACGCAG; assay: exonuclease I/III digestion, SYBR Gold fluorescence; details: 0.25 μM MNZ, 25 °C, aptamer varied

- Kd [1]: 92.60 ± 25.58 nM
- Kd [2]: 154.28 ± 51.87 nM
- Kd [3]: 126.18 ± 41.91 nM
- Kd [4]: 151.49 ± 56.08 nM
- binding [5]: yes
Compound: Cc1ncc([N+](=O)[O-])n1CCO
